Experimental data: ChEMBL document CHEMBL1136696, “Azalide 3,6-ketals: antibacterial activity and structure-activity relationships of aryl and hetero aryl substituted analogues” (Bioorg Med Chem Lett, 2003)
Converted amounts (≈) assume the structure as drawn.

Key:
Assay type in all cases: functional
Pasteurella multocida = assay: In vitro antibacterial activity against Pasteurella multocida 59A0067
Staphylococcus aureus = assay: In vitro antibacterial activity against Staphylococcus aureus 01A0758
Escherichia coli = assay: In vitro antibacterial activity against Escherichia coli 51A0150

Row | SMILES | MIC (Pasteurella multocida) [µg/mL] | MIC (Staphylococcus aureus) [µg/mL] | MIC (Escherichia coli) [µg/mL]
1 | CC[C@H]1OC(=O)[C@H](C)[C@H]2OC3(CCN(c4cc(C)c([N+](=O)[O-])cn4)CC3)O[C@](C)(C[C@@H](C)CN[C@H](C)[C@@H](O)[C@]1(C)O)[C@H](O[C@@H]1O[C@H](C)CC(N(C)C)[C@H]1O)[C@H]2C (stereo partly drawn) | 1.56 (≈ 1.96 µM) | 0.78 (≈ 0.982 µM) | 6.25 (≈ 7.87 µM)
2 | CC[C@H]1OC(=O)[C@H](C)[C@H]2OC3(CCN(c4cc(OC)nc(OC)n4)CC3)O[C@](C)(C[C@@H](C)CN[C@H](C)[C@@H](O)[C@]1(C)O)[C@H](O[C@@H]1O[C@H](C)CC(N(C)C)[C@H]1O)[C@H]2C (stereo partly drawn) | 0.2 (≈ 0.251 µM) | 1.56 (≈ 1.96 µM) | 3.13 (≈ 3.93 µM)
3 | CC[C@H]1OC(=O)[C@H](C)[C@H]2OC3(CCN(c4nccs4)CC3)O[C@](C)(C[C@@H](C)CN(C)[C@H](C)[C@@H](O)[C@]1(C)O)[C@H](O[C@@H]1O[C@H](C)CC(N(C)C)[C@H]1O)[C@H]2C (stereo partly drawn) | 0.39 (≈ 0.517 µM) | 3.13 (≈ 4.15 µM) | 3.13 (≈ 4.15 µM)
4 | CC[C@H]1OC(=O)[C@H](C)[C@H]2OC3(CCN(c4ncc(C(=O)OCc5ccccc5)c(C(F)(F)F)n4)CC3)O[C@](C)(C[C@@H](C)CN[C@H](C)[C@@H](O)[C@]1(C)O)[C@H](O[C@@H]1O[C@H](C)CC(N(C)C)[C@H]1O)[C@H]2C (stereo partly drawn) | > 50 | 0.78 (≈ 0.831 µM) | > 50
5 | CC[C@H]1OC(=O)[C@H](C)[C@H]2OC3(CCN(c4ccc([N+](=O)[O-])cn4)CC3)O[C@](C)(C[C@@H](C)CN[C@H](C)[C@@H](O)[C@]1(C)O)[C@H](O[C@@H]1O[C@H](C)CC(N(C)C)[C@H]1O)[C@H]2C (stereo partly drawn) | 0.39 (≈ 0.5 µM) | 1.56 (≈ 2 µM) | 3.13 (≈ 4.01 µM)
6 | CC[C@H]1OC(=O)[C@H](C)[C@H]2OC3(CCN(c4ccc(C(=O)OCc5ccccc5)c(C(F)(F)F)c4)CC3)O[C@](C)(C[C@@H](C)CN[C@H](C)[C@@H](O)[C@]1(C)O)[C@H](O[C@@H]1O[C@H](C)CC(N(C)C)[C@H]1O)[C@H]2C (stereo partly drawn) | 6.25 (≈ 6.68 µM) | 0.78 (≈ 0.833 µM) | > 50
